# System: pilocarpine induced status epilepticus (SE)
# Assay: Pilocarpine-induced status epilepticus in rats, cortical EEG power
# Assay type: in vivo, Male Sprague-Dawley rats
# Design: key to Treatment effect on EEG power vs vehicle, significance: * P < 0.05; ** P < 0.01; *** P < 0.001; **** P < 0.0001; ns = not significant
# Settings: 12 mg/kg IV
# Description: This study was designed to determine the ability of a CAPTISOL-ganaxolone (GNX) formulation administered intravenously (IV) at 12 and 15 mg/kg to inhibit pilocarpine induced status epilepticus (SE). Allopregnanolone (Allo) (15 mg/kg; IV) was also evaluated for comparison. In this study, test drugs were administered either 15 or 60 minutes after onset of SE and compared to vehicle (30% Captisol).
# Cortical EEG activity was recorded in rats before and after administration of pilocarpine to induce SE. Animals were pre-treated with LiCl to enhance and improve reliability of seizure induction and scopolamine to reduce peripheral cholinergic side effects of pilocarpine. EEG activity was recorded for 5 h after SE onset, and anticonvulsant activity was assessed by determining changes in EEG power over frequency ranges from 0.3 to 96 Hz.
# Male Sprague-Dawley rats were used for the studies. Rats were surgically implanted with EEG electrodes and jugular vein catheters. The mean weight at the time of recording was 321+3 g (269-351 g).
# EEG electrodes were surgically implanted in anesthetized rats. Animals were also treated with an anti-inflammatory anaelgesic (RIMADYL, (carprofen)) prior to surgery and a subcutaneous local anesthetic. Stainless steel screw electrodes chronically were implanted in the skull (0-80×¼″, Plastics-One, Roanoke, VA) such that the ends of the screws were flush with the inner skull surface. One electrode was located 3.0 mm anterior to bregma and 2 mm to the left of midline, and the second 4.0 mm posterior to bregma and 2.5 mm to the right of midline. The skull surface around the electrodes was sealed with super glue and dental acrylic, and the EEG electrode lead wires were inserted into a plastic pedestal mounted on the skull using dental acrylic. Wound edges were treated with triple antibiotic cream (bacitracin zinc, neomycin sulfate, polymyxin B sulfate; Walgreens). Following surgery, animals were administered antibiotic (ampicillin, 50 mg/kg IP at 0.4 mL/kg) and also received a chewable dose (˜10 mg) of Rimadyl following surgery. The animals were allowed to recover from EEG surgery for 1 week.
# Rats were implanted with jugular-vein catheters (JVC) one week following EEG surgery. Rats were administered an anti-inflammatory/analgesic and then anesthetized and placed in a supine position. An incision was made in the skin on the right ventrolateral aspect of the neck to expose the external jugular vein which was then dissected free of surrounding fascia. A ligature was tied around the vein anteriorly to occlude blood flow returning to the heart. A second ligature was loosely tied around the vein posteriorly to create tension on the vessel during venotomy and catheter insertion. After incising the vein, a PE catheter (3Fr) was inserted into the vein and advanced approximately 30 mm towards the heart, positioning the tip at the junction of the precava and right atrium. After confirming patency of the catheter by blood withdrawal, the posterior ligature was tied off, and the catheter flushed with a “heparin-lock” solution (5 units heparin/ml saline) and plugged with a sterilized stainless steel pin. The catheter was then exteriorized by tunneling through the subcutaneous tissue to exit posterior to the head between the shoulder blades. Lastly, after suturing the catheter to the skin, all wounds were closed using sutures or wound clips. Immediately following surgery, the animals were awakened to assess catheter patency. Animals also received a chewable dose (˜10 mg) of Rimadyl following surgery to minimize pain and inflammation.
# Animals were allowed a 1-week recovery time following JVC surgery. Jugular vein catheters were flushed daily with a 0.1 mL of heparin solution (5 units/mL) to maintain patency. On the day of surgery, the flushing solution contained ampicillin sulbactam (50 mg/kg). […]
smiles,measurement,setting,value
"CC(=O)[C@H]1CC[C@H]2[C@@H]3CC[C@H]4C[C@](C)(O)CC[C@]4(C)[C@H]3CC[C@]12C [Ganaxolone, 3α-hydroxy, 3β-methyl-5α-pregnan-20-one]","Treatment effect on EEG power vs vehicle, significance","15 min post SE onset, 0-5 Hz, 0-15 min. post drug",**** (**** P < 0.0001)
same,"Treatment effect on EEG power vs vehicle, significance","15 min post SE onset, 0-5 Hz, 1-2 hrs post drug",**** (**** P < 0.0001)
same,"Treatment effect on EEG power vs vehicle, significance","15 min post SE onset, 0-5 Hz, 2-3 hrs post drug",*** (*** P < 0.001)
same,"Treatment effect on EEG power vs vehicle, significance","15 min post SE onset, 0-5 Hz, 3-5 hrs post drug",** (** P < 0.01)
same,"Treatment effect on EEG power vs vehicle, significance","15 min post SE onset, 0-5 Hz, 15-30 min post drug",**** (**** P < 0.0001)
same,"Treatment effect on EEG power vs vehicle, significance","15 min post SE onset, 0-5 Hz, 30-60 min post drug",**** (**** P < 0.0001)
same,"Treatment effect on EEG power vs vehicle, significance","15 min post SE onset, 5-10 Hz, 0-15 min. post drug",**** (**** P < 0.0001)
same,"Treatment effect on EEG power vs vehicle, significance","15 min post SE onset, 5-10 Hz, 1-2 hrs post drug",** (** P < 0.01)
same,"Treatment effect on EEG power vs vehicle, significance","15 min post SE onset, 5-10 Hz, 2-3 hrs post drug",* (* P < 0.05)
same,"Treatment effect on EEG power vs vehicle, significance","15 min post SE onset, 5-10 Hz, 3-5 hrs post drug",ns
same,"Treatment effect on EEG power vs vehicle, significance","15 min post SE onset, 5-10 Hz, 15-30 min post drug",**** (**** P < 0.0001)
same,"Treatment effect on EEG power vs vehicle, significance","15 min post SE onset, 5-10 Hz, 30-60 min post drug",*** (*** P < 0.001)
same,"Treatment effect on EEG power vs vehicle, significance","15 min post SE onset, 10-30 Hz, 0-15 min. post drug",*** (*** P < 0.001)
same,"Treatment effect on EEG power vs vehicle, significance","15 min post SE onset, 10-30 Hz, 1-2 hrs post drug",* (* P < 0.05)
same,"Treatment effect on EEG power vs vehicle, significance","15 min post SE onset, 10-30 Hz, 2-3 hrs post drug",ns
same,"Treatment effect on EEG power vs vehicle, significance","15 min post SE onset, 10-30 Hz, 3-5 hrs post drug",ns
same,"Treatment effect on EEG power vs vehicle, significance","15 min post SE onset, 10-30 Hz, 15-30 min post drug",**** (**** P < 0.0001)
same,"Treatment effect on EEG power vs vehicle, significance","15 min post SE onset, 10-30 Hz, 30-60 min post drug",** (** P < 0.01)
same,"Treatment effect on EEG power vs vehicle, significance","15 min post SE onset, 30-50 Hz, 0-15 min. post drug",*** (*** P < 0.001)
same,"Treatment effect on EEG power vs vehicle, significance","15 min post SE onset, 30-50 Hz, 1-2 hrs post drug",* (* P < 0.05)
same,"Treatment effect on EEG power vs vehicle, significance","15 min post SE onset, 30-50 Hz, 2-3 hrs post drug",ns
same,"Treatment effect on EEG power vs vehicle, significance","15 min post SE onset, 30-50 Hz, 3-5 hrs post drug",ns
same,"Treatment effect on EEG power vs vehicle, significance","15 min post SE onset, 30-50 Hz, 15-30 min post drug",*** (*** P < 0.001)
same,"Treatment effect on EEG power vs vehicle, significance","15 min post SE onset, 30-50 Hz, 30-60 min post drug",** (** P < 0.01)
same,"Treatment effect on EEG power vs vehicle, significance","15 min post SE onset, 50-70 Hz, 0-15 min. post drug",** (** P < 0.01)
same,"Treatment effect on EEG power vs vehicle, significance","15 min post SE onset, 50-70 Hz, 1-2 hrs post drug",** (** P < 0.01)
same,"Treatment effect on EEG power vs vehicle, significance","15 min post SE onset, 50-70 Hz, 2-3 hrs post drug",ns
same,"Treatment effect on EEG power vs vehicle, significance","15 min post SE onset, 50-70 Hz, 3-5 hrs post drug",ns
same,"Treatment effect on EEG power vs vehicle, significance","15 min post SE onset, 50-70 Hz, 15-30 min post drug",** (** P < 0.01)
same,"Treatment effect on EEG power vs vehicle, significance","15 min post SE onset, 50-70 Hz, 30-60 min post drug",* (* P < 0.05)
same,"Treatment effect on EEG power vs vehicle, significance","15 min post SE onset, 70-96 Hz, 0-15 min. post drug",** (** P < 0.01)
same,"Treatment effect on EEG power vs vehicle, significance","15 min post SE onset, 70-96 Hz, 1-2 hrs post drug",** (** P < 0.01)
same,"Treatment effect on EEG power vs vehicle, significance","15 min post SE onset, 70-96 Hz, 2-3 hrs post drug",ns
same,"Treatment effect on EEG power vs vehicle, significance","15 min post SE onset, 70-96 Hz, 3-5 hrs post drug",ns
same,"Treatment effect on EEG power vs vehicle, significance","15 min post SE onset, 70-96 Hz, 15-30 min post drug",** (** P < 0.01)
same,"Treatment effect on EEG power vs vehicle, significance","15 min post SE onset, 70-96 Hz, 30-60 min post drug",* (* P < 0.05)
same,"Treatment effect on EEG power vs vehicle, significance","60 min post SE onset, 0-5 Hz, 0-15 min. post drug",*** (*** P < 0.001)
same,"Treatment effect on EEG power vs vehicle, significance","60 min post SE onset, 0-5 Hz, 1-2 hrs post drug",**** (**** P < 0.0001)
same,"Treatment effect on EEG power vs vehicle, significance","60 min post SE onset, 0-5 Hz, 2-3 hrs post drug",*** (*** P < 0.001)
same,"Treatment effect on EEG power vs vehicle, significance","60 min post SE onset, 0-5 Hz, 3-5 hrs post drug",** (** P < 0.01)
same,"Treatment effect on EEG power vs vehicle, significance","60 min post SE onset, 0-5 Hz, 15-30 min post drug",**** (**** P < 0.0001)
same,"Treatment effect on EEG power vs vehicle, significance","60 min post SE onset, 0-5 Hz, 30-60 min post drug",**** (**** P < 0.0001)
same,"Treatment effect on EEG power vs vehicle, significance","60 min post SE onset, 5-10 Hz, 0-15 min. post drug",**** (**** P < 0.0001)
same,"Treatment effect on EEG power vs vehicle, significance","60 min post SE onset, 5-10 Hz, 1-2 hrs post drug",*** (*** P < 0.001)
same,"Treatment effect on EEG power vs vehicle, significance","60 min post SE onset, 5-10 Hz, 2-3 hrs post drug",** (** P < 0.01)
same,"Treatment effect on EEG power vs vehicle, significance","60 min post SE onset, 5-10 Hz, 3-5 hrs post drug",ns
same,"Treatment effect on EEG power vs vehicle, significance","60 min post SE onset, 5-10 Hz, 15-30 min post drug",**** (**** P < 0.0001)
same,"Treatment effect on EEG power vs vehicle, significance","60 min post SE onset, 5-10 Hz, 30-60 min post drug",**** (**** P < 0.0001)
same,"Treatment effect on EEG power vs vehicle, significance","60 min post SE onset, 10-30 Hz, 0-15 min. post drug",* (* P < 0.05)
same,"Treatment effect on EEG power vs vehicle, significance","60 min post SE onset, 10-30 Hz, 1-2 hrs post drug",** (** P < 0.01)
same,"Treatment effect on EEG power vs vehicle, significance","60 min post SE onset, 10-30 Hz, 2-3 hrs post drug",* (* P < 0.05)
same,"Treatment effect on EEG power vs vehicle, significance","60 min post SE onset, 10-30 Hz, 3-5 hrs post drug",ns

# Source: patent US20250325562A1, “Intravenous Ganaxolone Formulations and Methods of Use in Treating Status Epilepticus and Other Seizure Disorders” (MARINUS PHARMACEUTICALS, INC., priority 2015, published 2025)
